Assays:
[1] = test system: MURINE SQUAMOUS LUNG LC-12; experiment: Early stage murine squamous lung LC-12 (Table VI); format: in vivo; details: Balb/C female mice
Excerpt: Conventional Murine Tumor and Human Tumor Xenouraft Assays
Briefly, the murine tumor or human xenograph was implanted subcutaneously using either 12-gauge trocar implants or counted number of cells. The location for the trocar insertion is midway between the axillary and inguinal region along the side of the mouse. The trocar is slipped approximately ¾ of an inch subcutaneously up toward the axilla before discharging the tumor fragment, and pinching the skin as the trocar is removed., Alternatively, human tumor cells prepared from a […] of donor tumors (5×10^6 cells) were implanted subcutaneously in a hind-leg of a male or female nude mouse (Charles River). Either a test compound in vehicle or vehicle alone was administered by intravenous bolus injection (iv), intraperitoneal injection (ip), or oral gavage (po). Each treatment group, as well as a group of untreated control animals, consisted of five animals per group in each experiment. […] Body weights were taken as a general measure of toxicity. The subcutaneous tumor data were analyzed by determining the median tumor weight for each treatment group over the course of the experiment and calculating the tumor growth delay as the difference in days for the treatment versus the control tumors to reach a volume of either 500 or 1000 mm^3.
The parameters measured in each experiment are summarized in the following paragraphs. • Tumor Weight(mg)=(a×b^2)/2 where a=tumor length (mm) and b=tumor width (mm). • Tumor Growth Delay=T−C where T is the median time (days) required for the treatment group tumors to reach a predetermined size, and C is the median time (days) for the control group tumors to reach the same size. Tumor-free survivors are excluded from this calculation, and are tabulated separately (Tumor Free).
The median tumor weight of each group is determined (including zeros). The T/C value in percent is an indication of antitumor effectiveness.

[2] = test system: VEGF-induced neoangiogenesis; experiment: Rat corneal micropocket assay, VEGF disks; format: in vivo; details: 160 mg/kg orally by gavage once per day, days 1 through 10; Fisher 344 female rats
Protocol: Rat Corneal Micropocket Assay
Fisher 344 female rats (145–155 grams; Taconic, Inc., Germantown, N.Y.) were anesthesized with acepromazine (2.5 mg/kg, ip) 20 minutes prior to initiation of 2–3% isoflurane/oxygen inhalation. The body temperature was maintained with a circulating hot water pad. The surgery was performed using an ophthalmic operating microscope (OMS.75 Operating Microscope, TopCon Corporation, Japan). A scalpel blade (#15) was used to make a vertical half-thickness linear corneal incision just lateral to the center of the eye. […] A pocket was formed in the cornea using blunt dissection with corneal scissors (Roboz, Rockville, Md.). Nitrocellulose filters ([…], Millipore, Bedford, Mass.) were cut into small disks using a 20 gauge needle punch. The disks were soaked in 2 μl of human VEGF solution ([…]; R&D Systems) or human basic fibroblast growth factor (0.20 μg/μl; R&D Systems) for 10 minutes on ice. Using forceps, the disks impregnated with the angiogenic factor (VEGF or bFGF) were inserted into the corneal pocket so that the disk is firmly covered with corneal epithelium. […] The images were analyzed by converting the area of interest to high contrast black and white reversed image and counting the bright pixels as a determination of the vascular area. […]

[3] = total dose 640 mg/kg: 160 mg/kg/injection IV on days 4, 6, 8, and 10
[4] = total dose 1391 mg/kg: 107 mg/kg/injection IV every second day, days 4 to 28

Question: With `O=C(NS(=O)(=O)c1ccccc1)c1ccc(Cl)cc1Cl` [Example 110, N-[2,4-dichlorobenzoyl]phenylsulfonamide] as the compound, how does the “% BODY WT LOSS AT NADIR” value [1, 3] read?
Answer: Its value is 0%.

Question: And the “% T/C MASS” value [1, 3]?
Answer: Its value is 14%.

Question: What about the “ACTIVITY RATING” value [1, 3] of the same compound?
Answer: The value was “++ (1.3–1.9)”.

Question: What about the “DRUG DEATHS” value [1, 3] of the same compound?
Answer: The value was 0/4.

Question: And the “GROWTH DELAY” value [1, 3]?
Answer: Its value is 12.5 days.

Question: What about the “LOG KILL” value [1, 3] of the same compound?
Answer: The value was 1.7.

Question: And the “TUMOR FREE AT DAY 174” value [1, 3]?
Answer: The value was 0/4.

Question: What about the “% BODY WT LOSS AT NADIR” value [1, 4] of the same compound?
Answer: Its value is “+1.6%”.

Question: And the “% T/C MASS” value [1, 4]?
Answer: The value was 20%.

Question: And the “ACTIVITY RATING” value [1, 4]?
Answer: The value was “+++ (2.0–2.8)”.

Question: And the “DRUG DEATHS” value [1, 4]?
Answer: The value was 0/5.

Question: And the “GROWTH DELAY” value [1, 4]?
Answer: Its value is 15.5 days.

Question: What about the “LOG KILL” value [1, 4] of the same compound?
Answer: The value was 2.1.

Question: What about the “TUMOR FREE AT DAY 174” value [1, 4] of the same compound?
Answer: The value was 0/5.

Question: What about the “inhibition of VEGF-induced neoangiogenesis” value [2] of the same compound?
Answer: The value was “very effective inhibitor”.
